Values after ≈ are worked out from the molar mass of the structure shown.
Experiments:
Trypanothione reductase [1] = molecular target: Trypanothione reductase (Crithidia fasciculata, UniProt P39040); test: Inhibition of Crithidia fasciculata TryR overexpressed in escherichia coli assessed as inhibition constant
Trypanosoma cruzi [2] = test: Antiprotozoal activity against Trypanosoma cruzi infected in mouse assessed as survival rate at 10 mg/kg, po administered 3 times daily on day 6 and 7 then twice daily from day 8 to 12; assay type: functional; settings: time 7 day
MRC5 = test: Anticancer activity against human MRC5 cells assessed as cell growth inhibition; assay type: functional, cell-based
Leishmania infantum [3] = test: Antiprotozoal activity against Leishmania infantum amastigotes measured after 7 days by microscopic analysis; assay type: functional, organism-based; settings: 168 h
Trypanosoma cruzi [4] = test: Antiprotozoal activity against Trypanosoma cruzi amastigotes measured after 4 days; assay type: functional, organism-based; settings: 96 h
Trypanosoma brucei [5] = test: Antiprotozoal activity against Trypanosoma brucei trypomastigotes measured after 4 days by MTT assay; assay type: functional, organism-based; settings: 96 h
Trypanosoma cruzi [6] = test: Antiprotozoal activity against Trypanosoma cruzi Y strain epimastigotes; assay type: functional, organism-based
Trypanothione reductase [7] = molecular target: T1, Trypanothione reductase (Trypanosoma cruzi, UniProt P28593); test: Inhibition of Trypanosoma cruzi TryR expressed in escherichia coli in presence of NADPH
[8] = tested on: Trypanosoma brucei rhodesiense; test: Antiprotozoal activity against Trypanosoma brucei rhodesiense; assay type: functional, organism-based
Trypanosoma cruzi [9] = test: Antiprotozoal activity against Trypanosoma cruzi epimastigote at 10 uM relative to control; assay type: functional
Trypanothione reductase [10] = molecular target: T1, Trypanothione reductase; test: Inhibition of Trypanosoma cruzi TryR assessed as inhibition constant
Trypanosoma cruzi [11] = test: Antiprotozoal activity against Trypanosoma cruzi […]; assay type: functional, organism-based
Leishmania donovani [12] = test: Antiprotozoal activity against Leishmania donovani infected in mouse macrophage cell; assay type: functional, organism-based
Leishmania donovani [13] = test: Leishmanicidal activity against Leishmania donovani; assay type: functional, organism-based
Syrian golden hamster = test: In vivo antiprotozoal activity against Leishmania donovani amastigotes in hamster spleen assessed as reduction of amastigotes count measured after 7 days relative to control; assay type: functional, Mesocricetus auratus; settings: time 7 day
[14] = tested on: Trypanosoma brucei brucei; test: Antiprotozoal activity against Trypanosoma brucei brucei Lab 110 EATRO strain; assay type: functional, organism-based
Trypanosoma cruzi [15] = test: Antiprotozoal activity against Trypanosoma cruzi trypomastigotes assessed as growth inhibition at 1.6 uM relative to control; assay type: functional
Leishmania infantum [16] = test: Antiprotozoal activity against Leishmania infantum MHOM/MA671TMAP263 axenic amastigotes assessed as growth inhibition measured after 5 day by MTT assay; assay type: functional, organism-based; settings: 120 h
Leishmania infantum [17] = test: Antiprotozoal activity against Leishmania infantum MHOM/MA671TMAP263 promastigote assessed as growth inhibition measured after 5 day by MTT assay; assay type: functional, organism-based; settings: MHOM/MA671TMAP263, 120 h
Leishmania donovani [18] = test: Antiprotozoal activity against Leishmania donovani promastigote at 10 uM relative to control; assay type: functional
Trypanosoma cruzi [19] = test: Antiprotozoal activity against Trypanosoma cruzi epimastigotes; assay type: functional, organism-based; settings: Trypanosoma cruzi
Leishmania braziliensis [20] = test: Antiprotozoal activity against Leishmania braziliensis promastigotes; assay type: functional, organism-based
Leishmania braziliensis [21] = test: Antiprotozoal activity against Leishmania braziliensis amastigotes; assay type: functional, organism-based
Leishmania chagasi = test: Antiprotozoal activity against Leishmania chagasi amastigotes; assay type: functional, organism-based
Trypanosoma cruzi [22] = test: Antiprotozoal activity against Trypanosoma cruzi amastigotes; assay type: functional, organism-based
Trypanosoma cruzi [23] = test: Antiprotozoal activity against Trypanosoma cruzi measured after 24 hrs; assay type: functional, organism-based
Leishmania donovani [24] = test: Leishmanicidal activity against Leishmania donovani MHOM/PE/84/LC26; assay type: functional, organism-based
Leishmania infantum [25] = test: Leishmanicidal activity against Leishmania infantum MCAN/ES/2001/UCM-10; assay type: functional, organism-based
Leishmania braziliensis [26] = test: Leishmanicidal activity against Leishmania braziliensis MHOM/BR/1975/M2904; assay type: functional, organism-based
Leishmania donovani [27] = test: Antiprotozoal activity against Leishmania donovani promastigote assessed as lethality at 10 uM relative to control; assay type: functional
Trypanosoma brucei [28] = test: Antiprotozoal activity against Trypanosoma brucei […] assessed as lethality at 10 uM relative to control; assay type: functional
Trypanosoma cruzi [29] = test: Antiprotozoal activity against Trypanosoma cruzi […] strain infected in mouse macrophage cell measured after 3 days; assay type: functional, organism-based; settings: 72 h
Trypanosoma cruzi [30] = test: Antiprotozoal activity against Trypanosoma cruzi MHOM/BR/OO/Y strain infected in mouse macrophage cell measured after 3 days; assay type: functional, organism-based; settings: 72 h
Leishmania donovani [31] = test: Antiprotozoal activity against Leishmania donovani MHOM/ET/67/L82 strain infected in mouse macrophage cell measured after 5 days; assay type: functional, organism-based; settings: MHOM/ET/67/L82, Macrophage, 120 h
Leishmania amazonensis = test: Antiprotozoal activity against Leishmania amazonensis PH8 strain […] assessed as […] at 10 ug/ml relative to control; assay type: functional; settings: dose 10 µg/ml
Leishmania braziliensis [32] = test: Antiprotozoal activity against Leishmania braziliensis 2903 strain […] assessed as […] at 10 ug/ml relative to control; assay type: functional; settings: dose 10 µg/ml
Leishmania donovani [33] = test: Antiprotozoal activity against Leishmania donovani PP75 strain […] assessed as […] at 10 ug/ml relative to control; assay type: functional; settings: dose 10 µg/ml
Leishmania donovani [34] = test: Antiprotozoal activity against Leishmania donovani LV9 strain amastigotes; assay type: functional, organism-based
Trypanothione reductase [35] = molecular target: T1, Trypanothione reductase; test: Inhibition of Trypanosoma cruzi TryR expressed in escherichia coli SG5
Bacteria = test: Inhibition of TryS (unknown origin) at 10 uM relative to control

T1 sequence (P28593 whole entry): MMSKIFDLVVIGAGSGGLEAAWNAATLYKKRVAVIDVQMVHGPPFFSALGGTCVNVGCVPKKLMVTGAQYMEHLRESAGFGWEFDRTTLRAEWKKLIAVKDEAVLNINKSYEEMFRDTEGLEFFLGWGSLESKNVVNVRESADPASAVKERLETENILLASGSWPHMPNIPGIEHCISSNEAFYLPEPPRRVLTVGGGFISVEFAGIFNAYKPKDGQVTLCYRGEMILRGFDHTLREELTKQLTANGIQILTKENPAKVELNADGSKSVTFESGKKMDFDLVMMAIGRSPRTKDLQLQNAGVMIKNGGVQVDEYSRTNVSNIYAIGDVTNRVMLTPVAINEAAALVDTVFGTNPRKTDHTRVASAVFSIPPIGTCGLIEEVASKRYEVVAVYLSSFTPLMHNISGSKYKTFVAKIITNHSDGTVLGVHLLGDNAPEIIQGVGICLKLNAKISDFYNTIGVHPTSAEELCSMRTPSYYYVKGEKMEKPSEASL
Trypanothione reductase (Crithidia fasciculata, UniProt P39040), sequence (P39040 whole entry): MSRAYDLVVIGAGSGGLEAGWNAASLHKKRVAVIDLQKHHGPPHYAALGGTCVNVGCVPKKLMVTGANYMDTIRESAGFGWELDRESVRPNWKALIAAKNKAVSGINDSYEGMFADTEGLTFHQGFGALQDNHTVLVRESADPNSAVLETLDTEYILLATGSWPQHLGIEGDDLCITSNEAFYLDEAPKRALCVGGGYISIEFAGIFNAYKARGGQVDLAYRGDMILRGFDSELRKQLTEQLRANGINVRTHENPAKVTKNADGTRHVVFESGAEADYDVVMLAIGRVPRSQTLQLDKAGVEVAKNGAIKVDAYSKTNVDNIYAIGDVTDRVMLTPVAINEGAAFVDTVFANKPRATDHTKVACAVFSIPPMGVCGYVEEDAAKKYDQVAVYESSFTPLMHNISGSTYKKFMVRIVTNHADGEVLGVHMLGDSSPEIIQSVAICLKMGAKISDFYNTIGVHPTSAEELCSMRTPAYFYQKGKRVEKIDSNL

NCCCNCCCCNCCCNC(=O)CCc1ccc(O)c(O)c1
Ki (Trypanothione reductase [1]): 85 µM

CN(C)CCCN1CCN(C(=O)Cc2ccccc2)CC1
Activity (Trypanosoma cruzi [2]): 90%

COc1ccc2nc3cc(Cl)ccc3c(NCCCN(CCCNc3c4ccc(Cl)cc4nc4ccc(OC)cc34)C(=O)C(NC(=O)OC(C)(C)C)C(C)C)c2c1 (stereo not given)
IC50 (MRC5): > 3.13 µM | IC50 (Leishmania infantum [3]): < 1.56 µM | IC50 (Trypanosoma cruzi [4]): < 1.56 µM | IC50 (Trypanosoma brucei [5]): < 1.56 µM

NCCC(=O)CN
IC50 (Trypanosoma cruzi [6]): 1180 µM

O=C1NC(=O)C(c2c[nH]c3ccccc23)=C1NCCCNCCCNC1=C(c2c[nH]c3ccccc23)C(=O)NC1=O
IC50 (Trypanothione reductase [7]): > 57 µM

CN1CCN(CCCNc2cc(Cl)ccc2Sc2ccccc2)CC1
IC50 [8]: 0.98 µM | inhibition at 10 µM (Trypanosoma cruzi [9]): 85% | Ki (Trypanothione reductase [10]): 27 µM

CCCCN(CCCC)CCCN
IC50 (Trypanosoma cruzi [11]): 4.66 µM

CCCCCCCCCCCCCCCCNc1c(NCC[N+](C)(C)C)c(=O)c1=O
IC50 (Leishmania donovani [12]): > 12 µM | IC50 (Leishmania donovani [13]): > 12 µM

COC(=O)/N=C(\NCCCN1CCOCC1)NC(=O)OC
inhibition (INH) (Syrian golden hamster): 80%

N=C(N)c1ccc(N2CCCN(c3ccc(C(=N)N)cc3)CC2)cc1
IC50 [14]: 0.002 µM

C1CCC(CCCNCCCN2CCN(CCCNCCCC3CCCCC3)CC2)CC1
inhibition at 1.6 µM (Trypanosoma cruzi [15]): 70%

O=C1c2cccc3cccc(c23)C(=O)N1CCCNCCCNCCCCNCCCNCCCN1C(=O)c2cccc3cccc(c23)C1=O
IC50 (Leishmania infantum [16]): 12.3 µM | IC50 (Leishmania infantum [17]): 7.56 µM

COc1ccc2nc3cc(Cl)ccc3c(NCCCCCCCCNc3c4ccc(Cl)cc4nc4ccc(OC)nc34)c2c1
inhibition at 10 µM (Leishmania donovani [18]): 42%

CCCCCCCCCCNCCCCCCN
IC50 (Trypanosoma cruzi [19]): 10 µM | IC50 (Leishmania braziliensis [20]): 10 µM | IC50 (Leishmania braziliensis [21]): 10 µM | IC50 (Leishmania chagasi): 10 µM | IC50 (Trypanosoma cruzi [22]): 10 µM

CCCCCCCCCCC(O)CNCCN (stereo not given)
IC50 (Trypanosoma cruzi [23]): 31.2 µg/mL (≈ 128 µM)

CN(CCCNc1c(NCCC[N+](C)(C)C)c(=O)c1=O)CCCNc1c(NCCC[N+](C)(C)C)c(=O)c1=O
IC50 (Leishmania donovani [24]): > 15 µM | IC50 (Leishmania infantum [25]): > 15 µM | IC50 (Leishmania braziliensis [26]): > 15 µM

COc1ccc2nc3cc(Cl)ccc3c(NCCNCCCNCCNc3c4ccc(Cl)cc4nc4ccc(OC)cc34)c2c1
Activity (Leishmania donovani [27]): 99% | Activity (Trypanosoma brucei [28]): 99%

CC1=C(CCCCCC(=O)NCCCCNCCCNC(=O)CCCCCC2=C(C)C(=O)c3ccccc3C2=O)C(=O)c2ccccc2C1=O
IC50 (Trypanosoma cruzi [29]): < 5 µM | IC50 (Trypanosoma cruzi [30]): < 5 µM | IC50 (Leishmania donovani [31]): < 5 µM

CCN(CC)CCCCCCNc1cc(OC)cc2c(C)ccnc12 [SITAMAQUINE]
Activity (Leishmania amazonensis): 80% | Activity (Leishmania braziliensis [32]): 80% | Activity (Leishmania donovani [33]): 80% | IC50 (Leishmania donovani [34]): 4 µM

NCCCCN(CCCN)CCCNc1cc(Cl)ccc1Sc1ccccc1
IC50 (Trypanothione reductase [35]): 1 µM

NCCCCNCCCNC(=O)CN1C(=O)Cc2c([nH]c3ccc(Br)cc23)-c2ccccc21
inhibition (Bacteria): 22%

— ChEMBL document CHEMBL5260817, “Polyamine-based analogs and conjugates as antikinetoplastid agents” (Eur J Med Chem, 2017)
